Data published in paper PMC10244169, “Psychedelics promote plasticity by directly binding to BDNF receptor TrkB” (Nature Neuroscience, 2023).

How the values were obtained:
[1] = target: T1, TrkB (WT) dimerization (Rattus norvegicus, UniProt Q63604); experiment: Split-luciferase PCA of TrkB dimerization in N2a cells; type: cell-based; conditions: for TrkB dimerization (PCA), group mean (vehicle = 100): WT
T1 construct: expressed in transfected cells; host or cells: N2a
Method: (§1) Ketanserin, M100907 and TRKB.FC were added to the media 10 min before treatment. The PCA method was performed as previously described[11],[75],[76]. Split humanized Gaussia princeps luciferase (hGLuc) was cloned on the C-terminus of the reporter proteins TrkB (WT and Y433F) and lipid raft Fyn. If the reporter proteins that carry complementary halves of the luciferase interact, the enzyme can refold in its functional conformation and, upon addition of its substrate, produce luminescence proportionally to the amount of reporter proteins interacting at a given time. N2a cells were seeded in 96-well plates with opaque walls and transparent bottom (PerkinElmer, ViewPlate 96). Cells were transfected with Lipofectamine 2000 according to the manufacturer’s instructions 24 h post-plating with the PCA pair plasmids: phGLuc(1C)-TrkB(WT) or the mutant phGLuc(1C)-TrkB(Y433F) and phGLuc(2 C)-TrkB(WT) for the dimerization experiments; phGLuc(1C)-lipid raft Fyn and phGLuc(2C)-TrkB(WT) or phGLuc(2C)-TrkB(Y433F) for the lipid raft localization experiments. Forty-eight hours post transfection, cells were treated (40 min, 37 °C) in phenol red-free Dulbecco’s modified Eagle medium without serum. […] The PCA signal was detected with the substrate for the luciferase, native coelenterazine, which was injected into each well directly in the plate reader at a final concentration of 25 mM.

[2] = system: mice; experiment: Head-twitch response; type: in vivo, mouse; design: key to Mean, figure 7c (head-twitch response) / Mean Diff., figure 7d, Vehicle:Saline vs. Vehicle:LSD / Mean Diff., figure 7d, Vehicle:Saline vs. M100907:Saline / Mean Diff., figure 7d, M100907:Saline vs. M100907:LSD / Mean, figure 7d (head-twitch response) / Mean Diff., figure 7c, WT:Saline vs. WT:LSD / Head-twitch response, Mean: head twitch counts (scored every 2 min over 30 min); conditions: for Head-twitch response, Mean: ext fig 7d
Method: Immediately after the last injection, the animals were placed inside a transparent chamber and their activity video-recorded for 30 min. Similarly to previous studies, head twitches were scored as counts every 2 min by observers blinded to treatments and genotypes.

[3] = target: T2, eGFP-tagged TrkB (WT) (Rattus norvegicus, UniProt Q63604); experiment: Microscale thermophoresis (MST) in HEK293T lysates; type: binding
T2 construct: expressed in transfected cells; host or cells: HEK293T
T2 sequence (Q63604 32-821): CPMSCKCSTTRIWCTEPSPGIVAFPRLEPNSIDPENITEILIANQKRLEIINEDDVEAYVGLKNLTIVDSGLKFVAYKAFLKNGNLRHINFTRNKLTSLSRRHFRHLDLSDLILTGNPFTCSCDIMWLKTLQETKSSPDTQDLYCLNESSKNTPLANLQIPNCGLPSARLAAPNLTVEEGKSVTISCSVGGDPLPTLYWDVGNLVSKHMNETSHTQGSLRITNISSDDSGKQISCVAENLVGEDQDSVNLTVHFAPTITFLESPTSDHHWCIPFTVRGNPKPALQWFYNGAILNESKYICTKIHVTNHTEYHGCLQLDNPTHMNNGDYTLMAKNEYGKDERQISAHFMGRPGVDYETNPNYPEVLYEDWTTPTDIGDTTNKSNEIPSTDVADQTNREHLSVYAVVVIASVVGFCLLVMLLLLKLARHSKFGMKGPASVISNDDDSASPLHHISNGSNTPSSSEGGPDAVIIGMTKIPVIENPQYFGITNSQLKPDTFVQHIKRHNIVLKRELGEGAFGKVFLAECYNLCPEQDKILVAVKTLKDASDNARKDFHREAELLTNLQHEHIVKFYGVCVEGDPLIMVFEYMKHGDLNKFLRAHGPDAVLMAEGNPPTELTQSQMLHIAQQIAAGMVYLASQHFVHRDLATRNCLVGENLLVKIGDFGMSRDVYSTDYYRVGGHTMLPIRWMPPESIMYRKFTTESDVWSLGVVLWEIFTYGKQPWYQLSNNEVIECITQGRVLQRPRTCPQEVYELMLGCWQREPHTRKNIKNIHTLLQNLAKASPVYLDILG
Method: MST experiments were performed using the Monolith NT.115 (Blue/Red) instrument (NanoTemper Technologies). Lysates of HEK293T cells expressing GFP-tagged TrkB (WT, Y433F, TrkA.TM) were lysed, vortexed, sonicated and centrifuged 24 h after transient transfection and used as a source of fluorescently labeled TrkB, similarly to previously described protocols[11],[45]–[47]. The advantage of this approach is the possibility of studying the proteins in close-to-native conditions. However, the presence of other proteins, lipids, nucleic acids and other components of crude cell lysates can alter the diffusion of biomolecules and therefore binding affinities. High viscosity and background signal typically results in the affinity values being orders of magnitude […] than those of more traditional binding assays. […] The measurements were performed in premium coated capillaries (NanoTemper Technologies, MO-K025) using a LED source with 470 nm and 50% infrared-laser power at 25 °C. Analysis was performed using MO Affinity Analysis 2.3. Results were fitted to specific binding with Hill slope equations from GraphPad Prism 9.2.

[4] = target: T3, TrkB(WT):Fyn (Rattus norvegicus, UniProt Q63604); experiment: PCA of TrkB interaction with lipid raft Fyn in N2a cells; type: cell-based
T3 construct: expressed in transfected cells; host or cells: N2a
T3 sequence (Q63604 32-821): as above
Method: as §1, with “[…]. One data point was excluded from Fig. 4b by applying Grubb’s method for outlier detection test, which detected it as a significant outlier.” for “mM.”

[5] = target: T4, TrkB(Y433F):Fyn (Rattus norvegicus, UniProt Q63604, Y433F); experiment: as above; type: cell-based; conditions: Y433F^+/− dimers
T4 construct: expressed in transfected cells; host or cells: N2a
T4 sequence (Q63604 32-821 Y433F): as the sequence (Q63604 32-821) above, with Y402F counted along it
Method: as §1, with “[…]. One data point was excluded from Fig. 4b by applying Grubb’s method for outlier detection test, which detected it as a significant outlier.” for “mM.”

T1 sequence (Q63604 32-821): as the sequence (Q63604 32-821) above
T1 sequence (Q63604 32-821): as above

## COc1cccc([C@H](O)C2CCN(CCc3ccc(F)cc3)CC2)c1OC [M100907]
[1]; M100907 alone (M100907:vehicle), n=20
  Group mean (Mean 2; Vehicle:vehicle = 100), fig 4d: 100
[1]; ketanserin 100 nM, M100907 100 nM or TrkB.FC 200 ng ml^−1, 10 min before
  effect of pretreatment on LSD- and BDNF-induced TrkB dimerization: fails to prevent the effects of LSD and BDNF on TrkB dimerization
[2]; M100907 0.5 mg kg^−1, 30 min before LSD
  effect on LSD-induced head-twitch response: blocked
[2]; M100907:Saline group
  Mean, figure 7d (head-twitch response): 0.2
[2]; Time (min) 2
  Head-twitch response, Mean: 0.2
[2]; Time (min) 4
  Head-twitch response, Mean: 0
[2]; Time (min) 6
  Head-twitch response, Mean: 0
[2]; Time (min) 8
  Head-twitch response, Mean: 0
[2]; Time (min) 10
  Head-twitch response, Mean: 0
[2]; Time (min) 12
  Head-twitch response, Mean: 0
[2]; Time (min) 14
  Head-twitch response, Mean: 0
[2]; Time (min) 16
  Head-twitch response, Mean: 0
[2]; Time (min) 18
  Head-twitch response, Mean: 0
[2]; Time (min) 20
  Head-twitch response, Mean: 0
[2]; Time (min) 22
  Head-twitch response, Mean: 0
[2]; Time (min) 24
  Head-twitch response, Mean: 0
[2]; Time (min) 26
  Head-twitch response, Mean: 0
[2]; Time (min) 28
  Head-twitch response, Mean: 0
[2]; Time (min) 30
  Head-twitch response, Mean: 0
[2]; vehicle minus M100907, Bonferroni's multiple comparisons test
  Mean Diff., figure 7d, Vehicle:Saline vs. M100907:Saline: 2.2

## CN(C)CCc1c[nH]c2cccc(O)c12 [PSI, psilocin]
[3]; MST WT
  h (best-fit, 1c/1d): 0.8209
[3]; MST WT, fit ambiguous
  Bmax (best-fit, 1c/1d): ~ 268422
[3]; native (WT) TrkB
  binding by MST: directly bind to native TrkB
[4]
  TrkB interaction with Fyn: increase TrkB interaction with lipid raft-restricted Fyn
[5]
  TrkB interaction with Fyn: this effect is lost
[1]; WT TrkB, N2a cells, 1 nM to 1 µM
  TrkB dimerization: fast and long-lasting increase in dimerization
[1]; 1nM
  TrkB dimerization (PCA), group mean (vehicle = 100): 146
[1]; 10nM
  TrkB dimerization (PCA), group mean (vehicle = 100): 133.7
[1]; 100nM
  TrkB dimerization (PCA), group mean (vehicle = 100): 150.6
[1]; 1uM
  TrkB dimerization (PCA), group mean (vehicle = 100): 166.1
